≈ marks a conversion by molar mass, not a printed value.
Assays:
[1] = system: Corinebacterium xerosis JCM 1324; experiment: Antibacterial test, serial double dilution method (MIC); assay type: cell-based; details: Muller-Hilton agar, 37° C., 24 hours; concentration converted into hinokitiol
Excerpt: (§1) The clathrate compound of the present invention and non-clathrate compounds were each subjected to an antibacterial test. Aerobic and anaerobic bacteria used in the test are as follows:
Cx: Corinebacterium xerosis JCM 1324
(§2) The samples used in the antibacterial test are as follows in which butylparabene was used as a control compound. The concentrations of clathrate compounds were all measured by converting into the concentrations of a hinokitiol. Samples of antibacterial agents
(§3) Method: Serial Double Dilution Method
(§4) As for the culture medium, an aqueous solution containing 38 g/l of a Muller-Hilton agar medium (manufactured by DEFCO) was used for aerobic bacteria and an aqueous solution containing 59 g/l of a GAM agar medium (manufactured by Nissui Pharmaceutical Co., Ltd.) for anaerobic bacteria. Each subject compound was added to each corresponding medium in a manner that the concentration of a hinokitiol was 400 μg/ml and diluted according to the serial double dilution method using the same medium. 10 ml of each resulting medium was poured into a plastic Schale with an inside diameter of 90 mm and was solidified. The solidified medium in the Schale was divided. 0.1 ml of a distilled water suspension containing the subject microorganisms (the number of microorganisms: 10^6-10^9/ml) was inoculated into each compartment and incubated at 37° C. for 24 hours. […]

[2] = system: Serratia marcessenes IFO 3736; experiment: as above; assay type: cell-based; details: Muller-Hilton agar, 37° C., 24 hours, concentration converted into hinokitiol
Excerpt: as §1
Sm: Serratia marcessenes IFO 3736
as §2, §3, §4

[3] = system: Malassezia furfur IFO 0656; experiment: as above; assay type: cell-based; details: Muller-Hilton agar, 37° C., 24 hours, concentration converted into hinokitiol
Excerpt: as §1
Mf: Malassezia furfur IFO 0656
as §2, §3, §4

[4] = system: Proteus vulgaris IFO 3167; experiment: as above; assay type: cell-based; details: Muller-Hilton agar, 37° C., 24 hours, concentration converted into hinokitiol
Excerpt: as §1
Pv: Proteus vulgaris IFO 3167
as §2, §3, §4

[5] = system: Corynebacterium minutissiumum ATCC 23348; experiment: as above; assay type: cell-based; details: Muller-Hilton agar, 37° C., 24 hours, concentration converted into hinokitiol
Excerpt: as §1
Cm: Corynebacterium minutissiumum ATCC 23348
as §2, §3, §4

[6] = system: Escherichia coli IFO 3972; experiment: as above; assay type: cell-based; details: Muller-Hilton agar, 37° C., 24 hours, concentration converted into hinokitiol
Excerpt: as §1
Ec: Escherichia coli IFO 3972
as §2, §3, §4

[7] = system: Staphylococcus aureus IAM 1011; experiment: as above; assay type: cell-based; details: Muller-Hilton agar, 37° C., 24 hours, concentration converted into hinokitiol
Excerpt: as §1
Sa: Staphylococcus aureus IAM 1011
as §2, §3, §4

[8] = Evaluation of the heat stability (sublimation); assay type: physicochemical; details: 1000 mg allowed to stand at 90° C. for 20 hours
Excerpt: The results of the residual weight, sublimation rate (%) and sublimation rate (%) converted into a hinokitiol were shown in Table 4.

[9] = Solubility in water at 15° C.; assay type: physicochemical
Protocol: The solubilities of the above various branched CD clathrate compounds prepared in the above examples and reference example in water at 15° C. are shown in Table 1.

[10] = system: Staphylococcus epidermidis JCM 2414; experiment: Antibacterial test, serial double dilution method (MIC); assay type: cell-based; details: JCM2414, Muller-Hilton agar, 37° C., 24 hours, concentration converted into hinokitiol
Excerpt: as §1
Se: Staphylococcus epidermidis JCM 2414
as §2, §3, §4

Compound	MIC, Cx [1] [µg/mL]	MIC, Sm [2] [µg/mL]	MIC, Mf [3] [µg/mL]	MIC, Pv [4] [µg/mL]	MIC, Cm [5] [µg/mL]	MIC, Ec [6] [µg/mL]	MIC, Sa [7] [µg/mL]	Residual weight [8] [mg]	Sublimation rate [8] [%]	MIC [1] [µg/mL]	MIC ([2]; Serratia, IFO3736) [µg/mL]	Solubility in water [9] [%]	MIC ([3]; Malassezia furfur, IFO0656) [µg/mL]	MIC [10] [µg/mL]	MIC ([4]; Proteus vulgaris, IFO3167) [µg/mL]	MIC ([5]; Corynebacterium, ATCC23348) [µg/mL]	MIC ([6]; Escherichia coli, IFO3972) [µg/mL]	MIC ([7]; Staphylococcus aureus, IAM1011) [µg/mL]
CCCCOC(=O)c1ccc(O)cc1 [Butylparabene]	100 (≈ 515 µM)	>400	100 (≈ 515 µM)	100 (≈ 515 µM)	100 (≈ 515 µM)	400 (≈ 2060 µM)	100 (≈ 515 µM)	–	–	–	–	–	–	–	–	–	–	–
CC(C)c1cccc(=O)c(O)c1 [Hinokitiol]	–	–	–	–	–	–	–	8	99.2	50 (≈ 304 µM)	200 (≈ 1220 µM)	<0.05	50 (≈ 304 µM)	50 (≈ 304 µM)	50 (≈ 304 µM)	50 (≈ 304 µM)	50 (≈ 304 µM)	50 (≈ 304 µM)
CC(C)c1cccc(=O)c([O-])c1.[Na+] [sodium salt of hinokitiol]	–	–	–	–	–	–	–	764	23.6	–	–	–	–	–	–	–	–	–
